Measured values taken from the supplement of paper PMC11451515.

Legend:
Conditions in all cases: 48 h
[1] = system: NOMO1; assay: AUC of viability dose-response curve (% viability x log10 dose units); higher = less sensitive
Outline: (§1)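 In 1536-well plates, leukemia cells adapted to each medium (500 or 1000 cells/well) were exposed for 48 h at 37°C to library compounds in DMSO across 11 threefold doses, 47 μM down to 0.79 nM. Viability was read by CellTiter-Glo One luminescence and normalised per plate to DMSO and cell-free wells. A four-parameter log-logistic fit over log10 doses was integrated by trapezoidal rule. This yielded the area under the curve, with over-full-viability curves scaled and quality-control failures dropped.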

[2] = system: P12-Ichikawa; assay: as above
Outline: as §1

[3] = system: SEM cells; assay: as above
Outline: as §1

[4] = system: NOMO1; assay: cell viability relative to DMSO control; higher = less cytotoxic
Outline: (§2)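 Cells were incubated for 48 h at 37°C before CellTiter-Glo One luminescence was read. The cells were NOMO1 or SEM (500 cells/well) or P12-Ichikawa (1000 cells/well) leukemia cells, adapted for at least four passages in each medium and seeded in 1536-well plates (5 μl). Dosing used library compounds in DMSO applied by pin over 11 threefold points, 47 μM to 0.79 nM. Viability is the per-plate percentage of DMSO wells, with cell-free wells as background.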

[5] = system: P12-Ichikawa; assay: as above
Outline: as §2

[6] = system: SEM cells; assay: as above
Outline: as §2

CC\1=C(C(\N=C(/N1)C2=CC(=NC=C2)Cl)C3=C(F)C=C(Cl)C=C3)/C(=O)NC4=C(F)C=C5[NH]N=CC5=C4 (stereo not drawn)
AUC of viability dose-response curve
Conditions | [1] | [2] | [3]
HPLM + 10% dialyzed FBS | 459 | 440 | 408
RPMI 5 mM glucose + 10% FBS | 443 | 439 | 405
RPMI 5 mM glucose + 10% dialyzed FBS | 457 | 441 | 423

cell viability [%]
Conditions | [4] | [5] | [6]
HPLM + 10% dialyzed FBS, 0.000781 µM | 85.8 | 103 | 82.1
HPLM + 10% dialyzed FBS, 0.00234 µM | 97.5 | 103 | 84.4
HPLM + 10% dialyzed FBS, 0.00702 µM | 108 | 109 | 100
HPLM + 10% dialyzed FBS, 0.0211 µM | 116 | 112 | 94.9
HPLM + 10% dialyzed FBS, 0.0632 µM | 112 | 111 | 93.2
HPLM + 10% dialyzed FBS, 0.19 µM | 96.7 | 107 | 99.6
HPLM + 10% dialyzed FBS, 0.569 µM | 107 | 112 | 104
HPLM + 10% dialyzed FBS, 1.71 µM | 110 | 115 | 103
HPLM + 10% dialyzed FBS, 5.12 µM | 105 | 106 | 81.2
HPLM + 10% dialyzed FBS, 15.4 µM | 115 | 77.5 | 54.5
HPLM + 10% dialyzed FBS, 46.1 µM | 27 | 4.67 | 10.8
RPMI 5 mM glucose + 10% FBS, 0.000781 µM | 101 | 87.6 | 102
RPMI 5 mM glucose + 10% FBS, 0.00234 µM | 100 | 114 | 86.8
RPMI 5 mM glucose + 10% FBS, 0.00702 µM | 101 | 118 | 97.3
RPMI 5 mM glucose + 10% FBS, 0.0211 µM | 104 | 104 | 117
RPMI 5 mM glucose + 10% FBS, 0.0632 µM | 95.3 | 102 | 94.5
RPMI 5 mM glucose + 10% FBS, 0.19 µM | 93.4 | 113 | 99.1
RPMI 5 mM glucose + 10% FBS, 0.569 µM | 95.7 | 110 | 99.9
RPMI 5 mM glucose + 10% FBS, 1.71 µM | 98.2 | 113 | 85.4
RPMI 5 mM glucose + 10% FBS, 5.12 µM | 89 | 110 | 66.3
RPMI 5 mM glucose + 10% FBS, 15.4 µM | 85.3 | 71.6 | 51.7
RPMI 5 mM glucose + 10% FBS, 46.1 µM | 29.4 | 8.24 | 6.87
RPMI 5 mM glucose + 10% dialyzed FBS, 0.000781 µM | 94.7 | 105 | 87.7
RPMI 5 mM glucose + 10% dialyzed FBS, 0.00234 µM | 96.6 | 121 | 90.3
RPMI 5 mM glucose + 10% dialyzed FBS, 0.00702 µM | 122 | 110 | 103
RPMI 5 mM glucose + 10% dialyzed FBS, 0.0211 µM | 111 | 116 | 108
RPMI 5 mM glucose + 10% dialyzed FBS, 0.0632 µM | 108 | 118 | 102
RPMI 5 mM glucose + 10% dialyzed FBS, 0.19 µM | 99.8 | 118 | 122
RPMI 5 mM glucose + 10% dialyzed FBS, 0.569 µM | 106 | 121 | 96.3
RPMI 5 mM glucose + 10% dialyzed FBS, 1.71 µM | 98.2 | 124 | 101
RPMI 5 mM glucose + 10% dialyzed FBS, 5.12 µM | 82.7 | 112 | 81.3
RPMI 5 mM glucose + 10% dialyzed FBS, 15.4 µM | 97.3 | 82.9 | 55.2
RPMI 5 mM glucose + 10% dialyzed FBS, 46.1 µM | 40.7 | 14.7 | 13.5
